Data published in patent publication US20240200005A1, “METHOD FOR DEVELOPING AND/OR REPROGRAMMING PLANT CELLULAR OBJECTS” (SCREENSYS GMBH, priority 2021, published 2024).

System: microspores of Brassica napus
Assay: Dose-response of TSA trigger on growth/reprogramming of microspores in microfluidic compartments (image-based size analysis)
Assay type: cell-based
Conditions: for percentage of total microspores larger than 45 μm (multicellular stage): after 3 days
Description: For the cultivation of the microspores, the desired compartment sequences were generated by application of the system as shown in FIG. 1. The core of the system 2 was a five-channel precision syringe pump 11 (NEMESYS Cetoni GmbH, Germany) which can feed up to five fluids 6a-6e carried in glass syringes 20 (SETonic GmbH, Germany). One channel was used for the delivery of perfluoro-methyldecalin (PP9) as carrier fluid 6/6a, which is immiscible with the other fluids and thus separates the individual aqueous compartments 4 from one another inside the generated compartment 4 sequence. Another channel was used for 1×NLN13 (recipe below) medium 6b to dilute the medium with the microspores 14 and adjust the total volume of the compartments 4, and thus the concentration of the plant cellular objects 14 and the other substances, during formation. Two different trigger solutions 6c, 6d were used in channels three and four. Channel five was used for dosing the cell suspension, i.e. the medium with the plant cellular objects 14, itself. A cell container vial 12 was employed to feed the microspores 14 into the compartment generator 10. For this, a small conical glass vial 12 with a capacity of about 2 ml was used (See FIG. 1). The vial 12 was filled with the microspore suspension, i.e. medium with plant cellular objects 14, and closed airtight and free of air bubbles. The initial microspore density in the vial 12 was about 700.000 microspores/ml.
By syringe pump-controlled addition of medium 6e into the container 12 the suspended microspores 14 were fed through the container outlet conduit 16, a 0.2 mm ID FEP tube, into the compartment generator 10. ID stands for inner diameter. Instead of medium 6e it is also contemplated to add carrier fluid 6 to the container 12 with the suspended microspores. The individual syringes 20 were connected with the compartment generator 10 via respective conduits 17. Compartments 4 of about 120 nL volume each were formed and forwarded in a 0.5 mm ID PTFE tube as the microfluidic conduit 8 for incubation. A detailed description of the used compartment generator 10 can be found in “Cao J, Richter F, Kastl M, Erdmann J, Burgold C, Dittrich D, Schneider S, Köhler J M, Groß GA (2020) Droplet-Based Screening for the Investigation of Microbial Nonlinear Dose-Response Characteristics System, Background and Examples. Micromachines. 10.3390/mi1106057”, which is incorporated herein in its entirety by reference. For sufficient diffusive aeration during long-time incubation times, PTFE tubes with low wall thickness were used (inner diameter: 0.5 mm, outer diameter: 1.0 mm). Typical flow rate conditions of about 30 μl/min for the aqueous phases, i.e. the sample fluid, i.e. the medium 6b, the medium with the plant cellular objects, and the trigger solutions 6c, 6d, and about 100 μl/min for the embedding phase, i.e. the carrier fluid 6a, were used. […] However, other tube materials and dimensions may be used.
For a dose-response experiment the Trichostatin A (TSA) was chosen as a trigger. The stimulating effect of TSA on the germination of the microspores 14 was investigated in a concentration range from 0.01 μM up to 5 μM. Therefore, TSA stock solutions of 0.2 μM TSA 6c and 10 μM TSA 6d were used in the syringes 20 for triggers 1 and 2. The application of an appropriate flow rate program yielded the compartment 4 sequence with the desired concentrations of TSA in the compartments 4, as shown in FIG. 2. The resulting compartments 4 were composed of 50% volume microspore suspension, 50%-0% dilution medium 6b and 0-50% of the trigger solution 6c, 6d. Depending on the intended concentration of TSA in the generated compartments 4, either 0.2 μM TSA solution 6c or 10 μM TSA solution 6d was added to the generated compartments 4. The flow rate for the carrier medium 6e, here PP9, was kept constant at 50 μl/min. […]

SMILES: CC(/C=C/C(=O)NO)=C\[C@@H](C)C(=O)c1ccc(N(C)C)cc1 [TSA, Trichostatin A]
- percentage of microspores larger than 35 μm (0.01 μM TSA, after 3 days incubation at 32° C.): about 3%
- change of percentage of microspores larger than 35 μm (0.01 μM TSA, after 6 days versus 3 days): increased only marginally
- percentage of total microspores larger than 45 μm (multicellular stage) (0.05 μM TSA): about 1%
- percentage of total microspores with a diameter of at least 35 μm (0.05 μM TSA, after 6 days): about 8%
- percentage of very large microspores (>45 μm) (0.05 μM TSA, after 6 days): about 2%
- percentage of total microspores larger than 45 μm (multicellular stage) (0.1 μM TSA): about 1%
- percentage of microspores larger than 35 μm (0.1 μM TSA, after 3 days incubation at 32° C.): ~9%
- percentage of microspores larger than 35 μm (total column) (0.1 μM TSA, after 6 days): 11.4%
- proportion of microspores larger than 45 μm (0.1 μM TSA, after 6 days): 4.4%
- percentage of total microspores larger than 45 μm (multicellular stage) (0.35 μM TSA): about 1%
- percentage of microspores larger than 35 μm (0.35 μM TSA, after 3 days incubation at 32° C.): 8%
- percentage of microspores larger than 35 μm (0.35 μM TSA, after 6 days): 11.7%
- percentage of very large microspores (>45 μm) (0.35 μM TSA, after 6 days): 3.8%
- percentage of microspores larger than 35 μm (0.5 μM TSA, after 3 days incubation at 32° C.): about 4.4%
- percentage of total microspores with a diameter of at least 35 μm (0.5 μM TSA, after 6 days): about 8%
- percentage of very large microspores (>45 μm) (0.5 μM TSA, after 6 days): about 2%
- percentage of microspores larger than 35 μm (1 μM TSA, after 3 days incubation at 32° C.): ~4%
- green portion of column (microspores larger than 45 μm) (1 μM TSA, after 6 days): approximately 1.7%
- percentage of microspores larger than 35 μm (total column height) (1 μM TSA, after 6 days): 6.4%
- percentage of microspores larger than 35 μm (2 μM TSA, after 3 days incubation at 32° C.): ~0%
- percentage of microspores larger than 35 μm (2 μM TSA, after 6 days): about 1.3%
- percentage of microspores larger than 35 μm (5 μM TSA, after 3 days incubation at 32° C.): 0%
- growth of microspores (5 μM TSA, after 6 days): without any recognizable growth
- percentage of microspores larger than 35 μm (0.05 M TSA (so in the source), after 3 days incubation at 32° C.): approximately 7.6%
- lethal dose (microspores, no recognizable growth after 6 days): 5 µM
